Where two headings read alike, the source gives them in different places.
Key:
[1] = Stability of additive during polymerization; assay type: physicochemical; conditions: incorporated in relatively high amounts
From the text: Ideally, the materials are substantially unreactive during the polymerization conditions, so they are not degraded during polymerization. In some embodiments, low levels of additive might be observed, whether due to degradation, or difficulty in extraction from the polymer latex. In any case, retention of the additive in the latex leads to retention of antifungal properties in the finished paper.
The polymerization temperature was investigated as a potential contributor to degradation, and it was kept as low as was feasible (typically <70° C.). The samples were stripped at the end of polymerization to the desired solids content.

[2] = system: fungal species; assay: 30-III fungal test on 1"X1" chip of dried latex, growth observed after 7 days; assay type: cell-based; conditions: 7 day incubation
Experimental: The results observed in the G-21 study were also duplicated in a shorter (7 day incubation) fungal study (referred to herein as 30-III).
The 30-III fungal test was based on making a 1″X1″ chip of the dried latex and inoculating the fungal species directly on to the sample and then observing its growth after 7 days. This is not as rigorous a test as the G-21 test, but gave a quick indication of the efficacy of the additives.

[3] = system: fungal species; assay: ASTM D-3273 on coated paper, increased coating thickness, spores in humidity chamber, 28 days; assay type: cell-based
Experimental: A second round of testing was performed using an increased coating thickness to ensure full coverage of the paper surface. The second round of testing of the coated paper samples were tested according to ASTM D-3273. In this study, the duration remained the same (28 days), but the fungal species were not directly inoculated on the surface. Rather, they were maintained in the humidity chamber as spores that would then land on the surface of the coated paper as in a real world example. The results of this study are outlined in FIG. 3.

[4] = Solubility of additives used in polymerization; assay type: physicochemical

Compound	antifungal performance [2]	antifungal performance [3]	Solubility ([4]; in monomer where given)	Solubility [4]	further results
Cc1ccc(S(=O)(=O)C(I)I)cc1 [Amical AF, Diiodomethyltoluyl sulfone]	some fungal inhibition	effective	Limited	–	degradation during polymerization [1]: degraded
[Na+].[O-]c1ccccc1-c1ccccc1 [Microban P2, Sodium orthophenyl phenate]	–	–	–	–	Solubility ([4]; in water): soluble
CCCC1COC(Cn2cncn2)(c2ccc(Cl)cc2Cl)O1 (centres unmarked) [Microban PZ, Propiconazole]	–	–	–	Fairly soluble	–
CC(C)(C)C(O)(CCc1ccc(Cl)cc1)Cn1cncn1 (centres unmarked) [Microban TZ, Tebuconazole]	–	–	–	Fairly soluble	–
Oc1cc(Cl)ccc1Oc1ccc(Cl)cc1Cl [Triclosan, Chlorodiphenyl ether, reference compound]	–	–	Solid. Fairly	–	–
Zinc pyrithione [Microban Z01]	performed well	did not perform well	Insoluble in	–	–

— US9220725B2, “Cationic latex as a carrier for bioactive ingredients and methods for making and using the same” (priority 2006, dated 2015)
